Experiments:
[1] = system: gastric lesion formation (rat stomach); assay: Antiulcerogenic action / protective effect on the stomach (modified Shay rat: pyloric ligature plus oral acetylsalicylic acid); assay type: in vivo; conditions: rats, perorally, 1 h before pyloric ligature, 100 mg/kg acetylsalicylic acid orally, dose reducing lesion index by 50% vs control, 4 h, read-out: Protective effect on the stomach: Inhibition of the lesion index, ED50
Experimental: (§1) In these experiments, the compounds according to the invention were compared with prior art compounds (A-D) of UK Patent Application GB No. 2 082 580. The compounds investigated are numbered as follows:
(§2) The influence of the compounds according to the invention on gastric lesion formation induced by pyloric ligature (4 h; so-called Shay rat) and oral administration of 100 mg/kg of acetylsalicylic acid, and the gastric secretion (HCl) in the course of 4 h in rats is shown in the following table.
(§3) *ED25 und ED50 = dose which reduces the lesion index or the HCl secretion
(§4) (4h) in the rat stomach by 25 and, respectively, 50% in the treated group
(§5) in comparison with the control group.
The antiulcerogenic action was tested by the so-called Shay rat method:
(§6) Ulcers are caused in rats which have been fasted for 24 hours (female, 180-200 g, 4 animals per cage on a high grid) by pyloric ligature (under diethyl ether anesthesia) and oral administration of 100 mg/10 ml/kg of acetylsalicylic acid. The substances to be tested are administered orally (10 ml/kg) one hour before the pyloric ligature. The wound is closed by means of Michel clamps. 4 hours thereafter, the animals are sacrificed under ether anesthesia by Atlas dislocation and resection of the stomach. The stomach is opened longitudinally and attached to a cork plate, after the amount of gastric juice secreted (volume) and later its HCl content (titration with sodium hydroxide solution) have first been determined; the number and size (=diameter) of the ulcers present are determined under a stereomicroscope at 10-fold magnification. The product of the degree of severity (according to the following points scale) and number of ulcers serves as the individual lesion index.
Ulcer diameter 0.1-1.4 mm: 1
(§7) The reduction in the average lesion index of each treated group compared with the control group (=100%) serves as a measure of the antiulcerogenic effect.

gastric secretion (HCl) = assay: Inhibition of gastric secretion (HCl) in the Shay rat over 4 h; assay type: in vivo; conditions: rats; for ED25 / ED50: Rattus norvegicus, po, perorally; for ED25: dose reducing HCl secretion (4 h) by 25% vs control; for ED50: dose reducing HCl secretion (4 h) by 50% vs control; for Gastric secretion: % inhibition of HCl secretion: after administration of the antiulcerous ED50, 4 h
Experimental: as §1, §2, §3, §4, §5
**after administration of the antiulcerous ED50.
as §6, §7

| SMILES | ED50 [1] | ED25 (gastric secretion (HCl)) | ED50 (gastric secretion (HCl)) | Gastric secretion: % inhibition of HCl secretion (gastric secretion (HCl)) |
| --- | --- | --- | --- | --- |
| COc1ccnc(C[S+]([O-])c2nc3cc4c(cc3[nH]2)OC(F)(F)O4)c1 (stereo not drawn) [Serial No. 1, 2,2-Difluoro-6-[(4-methoxy-2-pyridyl)methylsulfinyl]-5H--[1,3]-dioxolo[4,5-f]benzimidazole] | 0.6 mg/kg | 0.6 mg/kg | 0.9 mg/kg | 25% |
| COc1ccnc(C[S+]([O-])c2nc3cc4c(cc3[nH]2)OC(F)(F)O4)c1C (stereo not drawn) [Serial No. 2, 2,2-difluoro-6-[(4-methoxy-3-methyl-2-pyridyl)methylsulfinyl]-5H-[1,3]-dioxolo-[4,5-f]benzimidazole] | 0.4 mg/kg | < 0.3 mg/kg | 0.6 mg/kg | 30% |
| COc1ccnc(C[S+]([O-])c2nc3cc4c(cc3[nH]2)OC(F)C(F)(F)O4)c1 (stereo not drawn) [Serial No. 3, 6,6,7-Trifluoro-6,7-dihydro-2-[(4-methoxy-2-pyridyl)methylsulfinyl]-1H-[1,4]-dioxino[2,3-f]benzimidazole] | 0.45 mg/kg | 0.5 mg/kg | 1.4 mg/kg | 23% |
| COc1ccnc(CSc2nc3cc4c(cc3[nH]2)OC(F)(F)C(F)O4)c1 (stereo not drawn) [Serial No. 4, 6,6,7-Trifluoro-6,7-dihydro-2-[(4-methoxy-2-pyridyl)-methylthio]-1H--[1,4]-dioxino[2,3-f]benzimidazole] | 0.6 mg/kg | 1 mg/kg | 1.7 mg/kg | 25% |
| COc1ccnc(C[S+]([O-])c2nc3cc4c(cc3[nH]2)OC(F)C(F)(F)O4)c1C (stereo not drawn) [Serial No. 5, 6,6,7-trifluoro-6,7-dihydro-2-[(4-methoxy-3-methyl-2-pyridyl)methylsulfinyl]-1H-[1,4]-dioxino[2,3-f]benzimidazole] | 0.35 mg/kg | < 0.3 mg/kg | 0.6 mg/kg | 35% |
| COc1ccnc(CSc2nc3cc4c(cc3[nH]2)OC(F)C(F)(F)O4)c1C (stereo not drawn) [Serial No. 6, 6,6,7-trifluoro-6,7-dihydro-2-[(4-methoxy-3-methyl-2-pyridyl)methylthio]-1H-[1,4]-dioxino[2,3-f]benzimidazole] | 0.6 mg/kg | 0.7 mg/kg | 1.4 mg/kg | 20% |
| COc1ccnc(CSc2nc3cc4c(cc3[nH]2)OC(F)(F)O4)c1C [Serial No. 7, 2,2-difluoro-6-[(4-methoxy-3-methyl-2-pyridyl)methylthio]-5H-[1,3]-dioxolo[4,5-f]benzimidazole] | 0.6 mg/kg | 0.6 mg/kg | > 1 mg/kg | 25% |
| COc1cc(C[S+]([O-])c2nc3cc4c(cc3[nH]2)OC(F)(F)O4)ncc1C (stereo not drawn) [Serial No. 8, 2,2-difluoro-6-[(4-methoxy-5-methyl-2-pyridyl)methylsulfinyl]-5H-[1,3]-dioxolo[4,5-f]benzimidazole] | 0.5 mg/kg | 1 mg/kg | 2.5 mg/kg | 17% |
| COc1c(C)cnc(C[S+]([O-])c2nc3cc4c(cc3[nH]2)OC(F)C(F)(F)O4)c1C (stereo not drawn) [Serial No. 9, 6,6,7-trifluoro-6,7-dihydro-2-[(4-methoxy-3,5-dimethyl-2-pyridyl)methylsulfinyl]-1H-[1,4]-dioxino[2,3-f]benzimidazole] | 0.5 mg/kg | 0.7 mg/kg | 1 mg/kg | 15% |
| COc1ccnc(C[S+]([O-])c2nc3cc4c(cc3[nH]2)OC(F)(F)C(F)(Cl)O4)c1C (stereo not drawn) [Serial No. 10, 6-Chloro-6,7,7-trifluoro-6,7-dihydro-2-[(4-methoxy-3-methyl-2-pyridyl)methylsulfinyl]-1H-[1,4]-dioxino[2,3-f]benzimidazole] | 0.4 mg/kg | 0.4 mg/kg | 0.7 mg/kg | 25% |
| COc1ccnc(CSc2nc3cc4c(cc3[nH]2)OCO4)c1 [Serial No. A, 6-[(4-Methoxy-2-pyridyl)methylthio]-5H--[1,3]-dioxolo-[4,5-f]benzimidazole, reference compound] | > 10 mg/kg | > 10 mg/kg | – | – |
| COc1ccnc(C[S+]([O-])c2nc3cc4c(cc3[nH]2)OCO4)c1 (stereo not drawn) [Serial No. B, 6-[(4-Methoxy-2-pyridyl)methylsulffinyl]-5H--[1,3]-dioxolo-[4,5-f]benzimidazole, reference compound] | ~5 mg/kg | – | – | – |
| COc1ccnc(CSc2nc3cc4c(cc3[nH]2)OCCO4)c1 [Serial No. C, 6,7-Dihydro-2-[(4-methoxy-2-pyridyl)methylthio]-1H--[1,4]-dioxino[2,3-f]benzimidazole, reference compound] | 30 mg/kg | > 30 mg/kg | > 30 mg/kg | 19% |
| COc1ccnc(C[S+]([O-])c2nc3cc4c(cc3[nH]2)OCCO4)c1 (stereo not drawn) [Serial No. D, 6,7-Dihydro-2-[(4-methoxy-2-pyridyl)methylsulfinyl]-1H--[1,4]-dioxino[2,3-f]benzimidazole, reference compound] | 30 mg/kg | > 30 mg/kg | > 30 mg/kg | 0% |
